Experimental data from ChEMBL document CHEMBL1132933, “Protease inhibitors: synthesis and QSAR study of novel classes of nonbasic thrombin inhibitors incorporating sulfonylguanidine and O-methylsulfonylisourea moieties at P1” (J Med Chem, 2000).

Columns and labels:
Prothrombin = Prothrombin (Homo sapiens, UniProt P00734); experiment: Inhibitory activity against human thrombin (using Chromozym TH as the substrate)
Trypsin = Trypsin (Homo sapiens, UniProt P07477+P07478+P35030); experiment: Inhibitory activity against human trypsin (using Chromozym TH as the substrate); format: protein assay

| Ki (Prothrombin) | Ki (Trypsin) | Compound |
| --- | --- | --- |
| 520 nM | 2100 nM | N=C(N)NS(=O)(=O)C(F)(F)C(F)(F)C(F)(F)C(F)(F)F |
| 243 nM | 1415 nM | COC(=N)NS(=O)(=O)c1ccc(I)cc1 |
| 255 nM | 1450 nM | Cc1cc(C)c(S(=O)(=O)N=C(N)N)c(C)c1 |
| 324 nM | 1800 nM | N=C(N)NNS(=O)(=O)c1ccccc1[N+](=O)[O-] |
| 205 nM | 1400 nM | N=C(N)NNS(=O)(=O)c1ccccc1C(=O)O |
| 48 nM | 1445 nM | Cc1ccc(S(=O)(=O)NC(=O)N2CCCC2C(=O)Nc2ccc(S(=O)(=O)N=C(N)N)cc2)cc1 (stereo unspecified) |
| 120 nM | 1150 nM | CN(C)c1cccc2c(S(=O)(=O)N=C(N)N)cccc12 |
| 16 nM | 1435 nM | COC(=N)NS(=O)(=O)c1ccc(NC(=O)C2CCCN2C(=O)[C@H](Cc2ccccc2)NC(=O)OCc2ccccc2)cc1 (stereo partly specified) |
| 98 nM | 1100 nM | N=C(N)NNS(=O)(=O)c1cc(Cl)cc(Cl)c1O |
| 10 nM | 1390 nM | Cc1ccc(S(=O)(=O)NC(=O)NCCC(=O)N[C@@H](Cc2c[nH]cn2)C(=O)Nc2ccc(S(=O)(=O)NN=C(N)N)cc2)cc1 |
| 328 nM | 2150 nM | COC(=N)NS(=O)(=O)c1ccc(C)cc1 |
| 88 nM | 1400 nM | N=C(N)NNS(=O)(=O)c1cccc(N)c1 |
| 290 nM | 1810 nM | Cc1ccc(S(=O)(=O)N=C(N)N)cc1 |
| 170 nM | 1235 nM | N=C(N)NNS(=O)(=O)c1cccc([N+](=O)[O-])c1 |
| 21 nM | 1550 nM | COC(=N)NS(=O)(=O)c1ccc(NC(=O)[C@H](Cc2c[nH]cn2)NC(=O)CNC(=O)NS(=O)(=O)c2ccc(C)cc2)cc1 |
| 225 nM | 1170 nM | N=C(N)NS(=O)(=O)c1ccc(Cl)cc1 |
| 19 nM | 1420 nM | COC(=N)NS(=O)(=O)c1ccc(NC(=O)[C@H](Cc2c[nH]cn2)NC(=O)CCNC(=O)NS(=O)(=O)c2ccc(C)cc2)cc1 |
| 227 nM | 1275 nM | COc1ccc(S(=O)(=O)NN=C(N)N)cc1 |
| 147 nM | 1445 nM | COC(=N)NS(=O)(=O)c1ccc2ccccc2c1 |
| 103 nM | 1080 nM | COc1ccc(S(=O)(=O)N=C(N)N)cc1N |
| 240 nM | 1320 nM | COc1ccc(S(=O)(=O)N=C(N)N)cc1 |
| 403 nM | 2135 nM | COC(=N)NS(=O)(=O)C(F)(F)C(F)(F)C(F)(F)C(F)(F)C(F)(F)C(F)(F)C(F)(F)C(F)(F)F |
| 121 nM | 1500 nM | N=C(N)NS(=O)(=O)c1cccc(C(=O)O)c1 |
| 99 nM | 1370 nM | COC(=N)NS(=O)(=O)c1cccc(N)c1 |
| 106 nM | 1580 nM | COC(=N)NS(=O)(=O)c1ccc(N)cc1 |

| Ki (Prothrombin) | Ki (Trypsin) | Compound |
| --- | --- | --- |
| 185 nM | 1320 nM | N=C(N)NS(=O)(=O)c1cccs1 |
| 320 nM | 980 nM | CC1(C)C2CCC1(CS(=O)(=O)N=C(N)N)C(=O)C2 (stereo unspecified) |
| 43 nM | 1250 nM | Cc1ccc(S(=O)(=O)NC(=O)N[C@H](Cc2ccccc2)C(=O)Nc2ccc(S(=O)(=O)N=C(N)N)cc2)cc1 |
| 112 nM | 1520 nM | N=C(N)NNS(=O)(=O)c1cccc(C(=O)O)c1 |
| 300 nM | 450 nM | N=C(N)NS(=O)(=O)c1ccc(C(=N)N)cc1 |
| 266 nM | 1325 nM | COC(=N)NS(=O)(=O)c1ccc(Cl)cc1 |
| 895 nM | 1450 nM | COC(=N)NS(=O)(=O)C(F)(F)F |
| 360 nM | 1950 nM | N=C(N)NS(=O)(=O)C(F)(F)C(F)(F)C(F)(F)C(F)(F)C(F)(F)C(F)(F)C(F)(F)C(F)(F)F |
| 152 nM | 1420 nM | N=C(N)NS(=O)(=O)c1cc(Cl)cc(Cl)c1O |
| 190 nM | 1100 nM | N=C(N)NS(=O)(=O)c1cccc([N+](=O)[O-])c1 |
| 336 nM | 1075 nM | COC(=N)NS(=O)(=O)CC12CCC(CC1=O)C2(C)C (stereo unspecified) |
| 213 nM | 1350 nM | COC(=N)NS(=O)(=O)c1cccs1 |
| 325 nM | 1550 nM | COC(=N)NS(=O)(=O)c1ccccc1C(=O)O |
| 153 nM | 1425 nM | COC(=N)NS(=O)(=O)c1c(F)c(F)c(F)c(F)c1F |
| 60 nM | 1320 nM | COC(=N)NS(=O)(=O)c1ccc(NC(=O)[C@@H](Cc2ccccc2)NC(=O)NS(=O)(=O)c2ccc(C)cc2)cc1 |
| 265 nM | 1370 nM | COC(=N)NS(=O)(=O)c1ccc(Br)cc1 |
| 180 nM | 975 nM | N=C(N)NS(=O)(=O)c1ccc([N+](=O)[O-])cc1 |
| 195 nM | 1070 nM | CC(=O)Nc1ccc(S(=O)(=O)N=C(N)N)cc1 |
| 210 nM | 1350 nM | N=C(N)NS(=O)(=O)c1ccc(I)cc1 |
| 139 nM | 1355 nM | CN(C)c1ccc(/N=N/c2ccc(S(=O)(=O)NN=C(N)N)cc2)cc1 |
| 197 nM | 1595 nM | COC(=N)NS(=O)(=O)c1cccc(C(=O)O)c1 |
| 123 nM | 1350 nM | N=C(N)NNS(=O)(=O)c1c(F)c(F)c(F)c(F)c1F |
| 225 nM | 1025 nM | N=C(N)NNS(=O)(=O)c1ccc(F)cc1 |
| 202 nM | 1345 nM | COC(=N)NS(=O)(=O)c1ccc(NC(C)=O)cc1 |

| Compound | Ki (Prothrombin) | Ki (Trypsin) |
| --- | --- | --- |
| Cc1ccc(S(=O)(=O)NC(=O)N2CCC[C@H]2C(=O)NCC(=O)Nc2ccc(S(=O)(=O)NN=C(N)N)cc2)cc1 | 15 nM | 1560 nM |
| N=C(N)NNS(=O)(=O)c1ccc(Br)cc1 | 203 nM | 1215 nM |
| N=C(N)NS(=O)(=O)c1ccc(NC(=O)C2CCCN2C(=O)[C@H](Cc2ccccc2)NC(=O)OCc2ccccc2)cc1 (stereo partly specified) | 13 nM | 1360 nM |
| N=C(N)NS(=O)(=O)c1ccc(N)cc1 [SULFAGUANIDINE] | 95 nM | 1350 nM |
